From US20090209536A1, “AMINOQUINAZOLINE CANNABINOID RECEPTOR MODULATORS FOR TREATMENT OF DISEASE” (KALYPSYS, INC., priority 2007, published 2009)
pEC50: −log10 of the molar value.

Key:
[1] = target: T1, human cannabinoid receptor type 2 (Homo sapiens, UniProt P34972); assay: Human CB2 Radioligand Binding Assay; conditions: competition with [3H] CP-55,940; membranes from stably transfected CHO CB2 cells; read-out: CB2 Ligand Binding Asssay EC50
T1 construct: expressed in transfected cells; membrane preparation
Method in brief: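 Filtration competition binding on membranes from CHO cells stably expressing human CB2, with [3H]CP-55,940 at its lot-specific Kd, in 50 mM Tris-HCl pH 7.4, EGTA, MgCl2, 5 mg/ml BSA, 1% DMSO; 90 min at 30° C. Compounds at 10 uM single point or dose-response; bound radioactivity by scintillation, 100 nM CP-55,940 as 100% efficacy.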

[2] = target: T2, human cannabinoid receptor type 1 (Homo sapiens, UniProt P21554); assay: Human CB1 Radioligand Binding Assay (basis of selectivity, CB2 vs. CB1); conditions: CB1: HEK 293 EBNA cells expressing human CB1; CB2: CHO CB2 membranes
T2 construct: purchased Perkin Elmer RBHCB1M; host or cells: HEK 293 EBNA cells
Method: 2. Human CB1 Radioligand Binding Assay
The incubation buffer was composed of 50 mM Tris-HCl pH 7.4, 2.5 mM EDTA, 5 mM MgCl2, 5.0 mg/ml fatty acid free BSA and the wash buffer was composed of 50 mM Tris-HCl pH 7.4, 2.5 mM EDTA, 5 mM MgCl2, 0.5 mg/ml fatty acid free BSA.

T1 sequence (P34972 whole entry): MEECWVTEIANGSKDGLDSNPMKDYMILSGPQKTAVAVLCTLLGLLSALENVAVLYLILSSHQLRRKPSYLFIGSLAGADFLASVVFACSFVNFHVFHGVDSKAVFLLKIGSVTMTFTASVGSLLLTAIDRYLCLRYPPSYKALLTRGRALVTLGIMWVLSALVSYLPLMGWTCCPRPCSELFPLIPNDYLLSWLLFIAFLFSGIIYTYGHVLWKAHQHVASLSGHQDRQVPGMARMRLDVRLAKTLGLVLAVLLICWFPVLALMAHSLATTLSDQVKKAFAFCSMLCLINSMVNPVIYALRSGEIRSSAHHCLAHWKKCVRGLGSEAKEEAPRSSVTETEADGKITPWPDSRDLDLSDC
T2 sequence (P21554 whole entry): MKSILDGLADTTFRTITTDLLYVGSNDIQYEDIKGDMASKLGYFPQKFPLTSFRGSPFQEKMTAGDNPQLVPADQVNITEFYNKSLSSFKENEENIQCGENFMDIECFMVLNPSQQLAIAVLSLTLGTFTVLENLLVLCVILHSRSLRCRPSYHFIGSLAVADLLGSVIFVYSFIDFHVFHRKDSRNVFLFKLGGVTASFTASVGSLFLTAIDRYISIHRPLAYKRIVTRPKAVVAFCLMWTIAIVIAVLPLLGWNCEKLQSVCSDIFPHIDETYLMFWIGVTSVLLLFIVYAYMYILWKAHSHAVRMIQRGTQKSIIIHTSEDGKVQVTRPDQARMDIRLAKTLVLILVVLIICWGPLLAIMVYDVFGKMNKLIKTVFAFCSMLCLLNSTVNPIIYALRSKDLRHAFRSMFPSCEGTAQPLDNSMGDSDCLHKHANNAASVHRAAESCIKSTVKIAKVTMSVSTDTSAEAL

pEC50 [1]	Selectivity, CB2 vs. CB1 [2]	SMILES
> 6.00	+ (+ indicates > 10−fold)	CN1CCN(c2nc(-c3ccc(Cl)cc3)nc3ccc(OC(F)(F)F)cc23)CC1 [Example 225, 2-(4-Chlorophenyl)-4-(4-methylpiperazin-1-yl)-6-(trifluoromethoxy)quinazoline]
> 6.00	− (− indicates ≦ 10−fold)	CCCN1[C@H](C)CN(c2nc(-c3ccccc3Cl)nc3ccccc23)C[C@@H]1C [Example 79, 2-(2-Chlorophenyl)-4-((3S,5R)-3,5-dimethyl-4-propylpiperazin-1-yl)quinazoline]
> 6.00	+ (+ indicates > 10−fold)	CC(=O)N1CCN(c2nc(-c3ccccc3F)nc3ccccc23)CC1 [Example 153, 1-(4-(2-(2-Fluorophenyl)quinazolin-4-yl)piperazin-1-yl)ethanone]
> 6.00	− (− indicates ≦ 10−fold)	CN(Cc1ccccc1)c1nc(-c2ccccc2Cl)nc2ccccc12 [Example 55, N-Benzyl-2-(2-chlorophenyl)-N-methylquinazolin-4-amine]
> 6.00	+ (+ indicates > 10−fold)	CC(C)(C)c1ccc2nc(-c3ccccc3Cl)nc(N3CCSCC3)c2c1 [Example 169, 4-(6-tert-Butyl-2-(2-chlorophenyl)quinazolin-4-yl)thiomorpholine]
> 6.00	+ (+ indicates > 10−fold)	CC(=O)N1CCN(c2nc(-c3ccccc3Cl)nc3cccc(Cl)c23)CC1 [Example 265, 1-(4-(5-Chloro-2-(2-chlorophenyl)quinazolin-4-yl)piperazin-1-yl)ethanone]
< 6.00	− (− indicates ≦ 10−fold)	FC(F)(F)Oc1ccc2nc(-c3ccc(Cl)cc3)nc(N3CCSCC3)c2c1 [Example 224, 4-(2-(4-Chlorophenyl)-6-(trifluoromethoxy)quinazolin-4-yl)thiomorpholine]
> 6.00	− (− indicates ≦ 10−fold)	Clc1ccc2nc(-c3ccccc3Cl)nc(N3CCSCC3)c2c1 [Example 207, 4-(6-Chloro-2-(2-chlorophenyl)quinazolin-4-yl)thiomorpholine]
> 6.00	+ (+ indicates > 10−fold)	Clc1ccc(-c2nc(N3CCOCC3)c3ccccc3n2)cc1 [Example 126, 4-(2-(4-Chlorophenyl)quinazolin-4-yl)morpholine]
< 6.00	− (− indicates ≦ 10−fold)	FC(F)(F)Oc1ccc(-c2nc(N3CCOCC3)c3ccccc3n2)cc1 [Example 141, 4-Morpholin-4-yl-2-(4-trifluoromethoxyphenyl)quinazoline]
> 6.00	− (− indicates ≦ 10−fold)	CC(C)(C)c1ccc(-c2nc(N3CCCC3)c3cc(Cl)ccc3n2)cc1 [Example 278, 2-(4-tert-Butylphenyl)-6-chloro-4-(pyrrolidin-1-yl)quinazoline]
< 6.00	− (− indicates ≦ 10−fold)	CC(C)CC(=O)N1CCN(c2nc(-c3ccccc3Cl)nc3cccc(Cl)c23)CC1 [Example 283, 1-(4-(5-Chloro-2-(2-chlorophenyl)quinazolin-4-yl)piperazin-1-yl)-3-methylbutan-1-one]
> 6.00	+ (+ indicates > 10−fold)	COC(=O)N1CCN(c2nc(-c3ccccc3Cl)nc3ccccc23)CC1 [Example 226, Methyl 4-(2-(2-chlorophenyl)quinazolin-4-yl)piperazine-1-carboxylate]
> 6.00	+ (+ indicates > 10−fold)	CCOC(=O)N1CCN(c2nc(-c3ccccc3Cl)nc3ccccc23)CC1 [Example 62, Ethyl 4-(2-(2-Chlorophenyl)quinazolin-4-yl)piperazine-1-carboxylate]
> 6.00	− (− indicates ≦ 10−fold)	O=C(N1CCN(c2nc(-c3ccccc3Cl)nc3ccccc23)CC1)C(F)(F)F [Example 103, 1-(4-(2-(2-Chlorophenyl)quinazolin-4-yl)piperazin-1-yl)-2,2,2-trifluoroethanone]
> 6.00	+ (+ indicates > 10−fold)	CCc1ccc2nc(-c3ccccc3Cl)nc(N3CCN(C)CC3)c2c1 [Example 173, 2-(2-Chlorophenyl)-6-ethyl-4-(4-methylpiperazin-1-yl)quinazoline]
> 6.00	− (− indicates ≦ 10−fold)	CS(=O)(=O)N1CCN(c2nc(-c3ccccc3Cl)nc3ccccc23)CC1 [Example 86, 2-(2-Chlorophenyl)-4-(4-(methylsulfonyl)piperazin-1-yl)quinazoline]
> 6.00	− (− indicates ≦ 10−fold)	FC(F)(F)Oc1ccc2nc(-c3ccc(Cl)cc3)nc(N3CCCC3)c2c1 [Example 222, 2-(4-Chlorophenyl)-4-(pyrrolidin-1-yl)-6-(trifluoromethoxy)quinazoline]
< 6.00	− (− indicates ≦ 10−fold)	CCOC(=O)N1CCN(c2nc(-c3ccc(F)c(F)c3)nc3ccccc23)CC1 [Example 220, Ethyl 4-(2-(3,4-difluorophenyl)quinazolin-4-yl)piperazine-1-carboxylate]
> 6.00	− (− indicates ≦ 10−fold)	CN1CCN(c2nc(-c3ccc(F)cc3F)nc3ccccc23)CC1 [Example 27, 2-(2,4-Difluorophenyl)-4-(4-methylpiperazin-1-yl)quinazoline]
< 6.00	− (− indicates ≦ 10−fold)	Cc1ccccc1-c1nc(N2CCCC2)c2ccccc2n1 [Example 155, 4-Pyrrolidin-1-yl-2-o-tolylquinazoline]
< 6.00	− (− indicates ≦ 10−fold)	CNC(=O)N1CCN(c2nc(-c3ccccc3Cl)nc3ccccc23)CC1 [Example 88, 4-(2-(2-Chlorophenyl)quinazolin-4-yl)-N-methylpiperazine-1-carboxamide]
< 6.00	− (− indicates ≦ 10−fold)	COc1ccc(Oc2nc(N3CCCC3)c3cc(OC)c(OC)cc3n2)cc1 [Example 297, 6,7-Dimethoxy-2-(4-methoxyphenoxy)-4-(pyrrolidin-1-yl)quinazoline]
